1 compound from patent US8658357B2, “Orotate transporter encoding marker genes” (Novozymes A/S, priority 2004, dated 2014) can be followed below.

One experiment concerns E. coli XL1-Blue. As to the kind of experiment: Screening for fluoroorotate sensitivity by streaking on ABTG plates. Type of experiment: cell-based, Escherichia coli. On the procedure:
QIAGEN™-purified plasmid DNA of pED301 (ysbC), or pDG268 (negative control) was introduced into competent XL1-Blue cells by the heat shock procedure, and transformants harboring plasmid pED301 or pDG268 were selected at 37° C. on LB plates supplemented with 100 micro-g/ml ampicillin. Transformants were screened for fluoroorotate sensitivity by streaking them on ABTG plates without or with 20 micro-g/ml fluoroorotate and incubation overnight at 37° C.

In experiment [1] the test system is L. lactis NCDO712 and MG1363. The experiment is described as follows: Screening for FOA sensitivity by streaking on SA-glucose plates with FOA. Type of experiment: cell-based, Lactococcus lactis ssp. cremoris. The procedure:
Lactococcal cultures were grown at 30° C. either in M17 broth (Terzaghi and Sandine, 1975) or in minimal SA-medium (Jensen and Hammer, 1993) supplemented with 0.5% and 1% glucose, respectively. E. coli strains were grown at 37° C. either in Luria-Bertani (LB) broth or in minimal ABTG medium (Clark and Maaløe, 1967). B. subtilis strains were grown at 37° C. either in LB medium or in minimal MM medium. Agar plates were made by adding […] agar to the broth medium. If necessary, the following supplements were added to the different media: orotate at 20 micro-g/ml, uracil at 20 micro-g/ml, 5-fluoroorotate (FOA) at 20 micro-g/ml, erythromycin at 5 micro-g/ml, chloramphenicol at 5 micro-g/ml for lactococci and 20 micro-g/ml for E. coli, ampicillin at 100 micro-g/ml.
QIAGEN™ purified plasmid DNA of pED210 and pCI3440 was introduced into competent NCDO712 and MG1363 cells by electroporation, and transformants harboring either plasmid pED210 or pCI3440 were selected at 30° C. on SR plates supplemented with 5 micro-g/ml chloramphenicol. Transformants harboring either pED210 or pCI3440 were screened for FOA sensitivity by streaking them on SA-glucose plates with 20 micro-g/ml FOA, and incubation overnight at 30° C.

Experiment [2] relates to B. subtilis HH263 derived strains ED344 and ED348. As to the kind of experiment: FOA sensitivity by streaking on selective MM plates. Type of experiment: cell-based, Bacillus subtilis. The procedure:
The resulting strains were denoted ED344 (HH263 amyE::pDG268) and ED348 (HH263 amyE::pED301). ED344 and ED348 were streaked on selective MM plates containing 5 micro-g/ml neomycine, one with 20 micro-g/ml FOA, and one without. The screening plates were incubated overnight at 37° C.

On to `O=C(O)c1[nH]c(=O)[nH]c(=O)c1F` [FOA, 5-fluoroorotate], for which the “FOA resistance/sensitivity (growth)” value in the experiment on E. coli XL1-Blue (XL1-Blue harbouring pED301 (ysbC), 20 micro-g/ml fluoroorotate, ABTG plates, overnight 37° C.) is reported as “sensitive”; in the experiment with E. coli XL1-Blue (untransformed E. coli XL1-Blue), “resistant”; in experiment [1] (L. lactis strain ED79.1175 (MG1363 ΔpyrDa ΔpyrDb)) it was “resistant”; in experiment [1] (NCDO712 and MG1363 containing plasmid pED210 (ysbC), 20 micro-g/ml FOA, SA-glucose plates, overnight 30° C.), “sensitive”; in experiment [1] (NCDO712 and MG1363 containing vector pCI3440 (control), 20 micro-g/ml FOA, SA-glucose plates, overnight 30° C.) it was “resistant”; in experiment [1] (untransformed L. lactis NCDO712 and MG1363), “resistant”. Moreover, the “FOA resistance/sensitivity (growth)” value in experiment [2] (ED344 (HH263 amyE::pDG268, control), 20 micro-g/ml FOA, MM plates, overnight 37° C.) is given as “resistant”; in experiment [2] (ED348 (HH263 amyE::pED301, ysbC), 20 micro-g/ml FOA, MM plates, overnight 37° C.), “sensitive”; in experiment [2] (untransformed B. subtilis HH263 (168 trpC2)), “resistant”.
